Data: ChEMBL document CHEMBL1138501, “Structure-guided design, synthesis, and evaluation of salicylic acid-based inhibitors targeting a selectivity pocket in the active site of human 20alpha-hydroxysteroid dehydrogenase (AKR1C1)” (J Med Chem, 2009)

How the values were obtained:
[1] = target: T1, Aldo-keto reductase family 1 member C3 (Homo sapiens, UniProt P42330); test: Inhibition of human recombinant type 2 3-alpha-HSD expressed in Escherichia coli JM109
T1 sequence (P42330 whole entry): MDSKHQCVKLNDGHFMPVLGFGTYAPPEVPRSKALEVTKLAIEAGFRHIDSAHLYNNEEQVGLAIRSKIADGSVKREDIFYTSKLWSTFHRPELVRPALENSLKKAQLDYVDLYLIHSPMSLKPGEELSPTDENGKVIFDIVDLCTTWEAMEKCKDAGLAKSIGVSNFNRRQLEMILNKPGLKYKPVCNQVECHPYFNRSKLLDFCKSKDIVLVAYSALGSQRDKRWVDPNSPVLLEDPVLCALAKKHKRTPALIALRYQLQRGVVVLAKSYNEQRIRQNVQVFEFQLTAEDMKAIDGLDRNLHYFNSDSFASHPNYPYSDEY

[2] = Cytotoxicity against BAEC assessed as cell viability at 10 uM; type: cell-based, Bos taurus; conditions: cattle
[3] = target: T2, Aldo-keto reductase family 1 member C4 (Homo sapiens, UniProt P17516); test: Inhibition of human recombinant type 1 3-alpha-HSD expressed in Escherichia coli JM109
T2 sequence (P17516 whole entry): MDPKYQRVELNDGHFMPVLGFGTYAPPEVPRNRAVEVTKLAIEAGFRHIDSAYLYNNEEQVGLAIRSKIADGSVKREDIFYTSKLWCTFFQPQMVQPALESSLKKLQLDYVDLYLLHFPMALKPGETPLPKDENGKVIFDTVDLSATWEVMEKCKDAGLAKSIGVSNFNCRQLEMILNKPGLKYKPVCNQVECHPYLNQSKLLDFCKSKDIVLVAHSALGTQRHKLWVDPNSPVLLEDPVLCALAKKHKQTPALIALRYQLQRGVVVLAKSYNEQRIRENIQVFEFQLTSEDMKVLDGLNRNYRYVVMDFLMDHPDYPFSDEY

[4] = target: T3, Aldo-keto reductase family 1 member C1 (Homo sapiens, UniProt Q04828); test: Inhibition of 20-alpha HSD
T3 sequence (Q04828 whole entry): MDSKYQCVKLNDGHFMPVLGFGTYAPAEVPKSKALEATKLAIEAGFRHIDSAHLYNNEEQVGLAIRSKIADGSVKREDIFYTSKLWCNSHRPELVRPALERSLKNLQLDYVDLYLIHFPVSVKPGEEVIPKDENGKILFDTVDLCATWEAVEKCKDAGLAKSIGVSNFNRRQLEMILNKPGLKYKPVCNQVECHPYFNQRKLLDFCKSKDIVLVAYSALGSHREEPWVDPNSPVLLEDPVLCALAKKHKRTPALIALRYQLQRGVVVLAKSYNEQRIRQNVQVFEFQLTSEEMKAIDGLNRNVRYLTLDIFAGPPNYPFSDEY

[5] = target: T3, Aldo-keto reductase family 1 member C1
Description: Inhibition of human recombinant 20-alpha HSD expressed in Escherichia coli JM109

[6] = target: T4, Aldo-keto reductase family 1 member C1 (Homo sapiens) (UniProt Q04828); conditions: 10 uM
T4 sequence (whole entry): T3 sequence (Q04828 whole entry)

SMILES: O=C(O)c1cc(Br)cc(Br)c1O
- Ki [1]: 23 µM
- Activity [2]: Non-toxic
- Ki ([3]; read-out: Ki): 45.7 µM

SMILES: O=C(O)c1cc(-c2ccccc2)cc(Br)c1O
- Ki [1]: 4.2 µM
- Activity [2]: Non-toxic
- Ki ([3]; read-out: Ki): 18.2 µM

SMILES: CCc1oc2ccccc2c1C(=O)c1cc(Br)c(O)c(Br)c1 [BENZBROMARONE]
- IC50 [4]: 0.048 µM

SMILES: O=C1OC(c2cc(Br)c(O)c(Br)c2)(c2cc(Br)c(O)c(Br)c2)c2ccccc21
- IC50 [4]: 0.033 µM

SMILES: O=C(O)c1cc(Br)cc(-c2ccccc2)c1O
- Ki [1]: 21 µM
- Activity [2]: Non-toxic
- Ki [5]: 0.14 µM
- inhibition [6]: 40%
- Ki [3]: Not Active
